From patent publication US20160251403A1, “PEPTIDE COMBINATIONS AND USES THEREOF IN TREATING DUST MITE ALLERGY” (ALK-ABELLO A/S, priority 2013, published 2016)
Positions count from the first letter of the chain named. No end group written: not given here.

Tests used:
DRB1_0802 = DRB1_0802 (Homo sapiens, UniProt P01903+P01911, A100R/A103L/A169T/F76Y/H45Y/I96F/K41T/L162R/M171V/P40S/Q125H/Q178H/Q39Y/Q99D/R218S/R42G/S66Y/V115G/W38E); test: Competitive MHC class II binding assay, DRB1_0802
DRB1_1501 = DRB1_1501 (Homo sapiens, UniProt P01903+P01911); test: Competitive MHC class II binding assay, DRB1_1501
DRB5_0101 = DRB5_0101 (Homo sapiens, UniProt P01903+Q30154); test: Competitive MHC class II binding assay, DRB5_0101
DRB1_0901 = DRB1_0901 (Homo sapiens, UniProt P01903+P01911, A100R/A103E/D57H/D86V/F55Y/F60I/F76Y/I96F/K127E/L162R/M171V/P40D/Q125H/Q99R/R33Q/R42F/S133A/S66N/T210M/V115G/W38K/Y107V/Y59G/Y89S); test: Competitive MHC class II binding assay, DRB1_0901;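 further: displacement of a radiolabeled probe peptide from purified HLA class II protein, bound counts read after two to four days incubation, six concentrations spanning 100,000-fold, unlabeled probe as reference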
DRB1_0101 = DRB1_0101 (Homo sapiens, UniProt P01903+P01911, A100R/D57E/F55L/F60I/F76Y/I96L/L162R/M171V/P40L/Q125E/R42F/V115G/Y59C); test: Competitive MHC class II binding assay, DRB1_0101;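 further: competition against a radiolabeled probe peptide (0.1–1 nM) for purified HLA class II protein over 2–4 days, bound counts read after antibody capture, six competitor levels across 100,000-fold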
DPA10202-DPB10501 = target: T1, DPA10202-DPB10501 (Homo sapiens, UniProt P04440+P20036, A42M/A65V/A84E/F191V/F64L/G113D/G114E/K142R/L158P/M116V/M62Q/P115A/Q81R/R125K/T114A/T199I/T259P/V234M); test: Competitive MHC class II binding assay, DPA10202-DPB10501; settings: positive binding at cutoff 1000 nM; read-out: HLA-DPA10202-DPB10501
T1 sequence (P04440 30-258 A65V/A84E/F64L/G113D/G114E/M116V/P115A/R125K/T199I/V234M): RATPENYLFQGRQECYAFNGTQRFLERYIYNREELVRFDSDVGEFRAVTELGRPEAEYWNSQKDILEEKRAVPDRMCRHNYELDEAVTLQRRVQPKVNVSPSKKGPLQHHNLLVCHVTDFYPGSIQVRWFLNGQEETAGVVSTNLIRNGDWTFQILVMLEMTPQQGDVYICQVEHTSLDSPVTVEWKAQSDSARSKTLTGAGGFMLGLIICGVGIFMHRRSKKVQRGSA
T1 sequence (P20036 29-260 A42M/F191V/K142R/L158P/M62Q/Q81R/T114A/T259P): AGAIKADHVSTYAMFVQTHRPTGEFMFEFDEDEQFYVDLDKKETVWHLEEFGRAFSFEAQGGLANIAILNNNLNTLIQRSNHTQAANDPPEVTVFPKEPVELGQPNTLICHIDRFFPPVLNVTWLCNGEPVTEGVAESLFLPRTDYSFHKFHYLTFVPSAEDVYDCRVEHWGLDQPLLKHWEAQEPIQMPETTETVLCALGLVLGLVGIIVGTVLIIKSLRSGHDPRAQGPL

DQA10501-DQB10301 = DQA10501-DQB10301 (Homo sapiens, UniProt P01909+P01920); test: Competitive MHC class II binding assay, DQA10501-DQB10301
DRB1_1302 = DRB1_1302 (Homo sapiens, UniProt P01903+P01911, A100E/A169T/K41T/L162R/M171V/P40S/Q125H/Q178H/Q39Y/Q99D/R42S/S66N/T262R/V115G/W38E/Y61H); test: Competitive MHC class II binding assay, DRB1_1302;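 further: purified HLA class II protein incubated two to four days with a radiolabeled reference binder and test peptide at six concentrations over a 100,000-fold range, complex-bound radioactivity counted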
DRB1_0701 = DRB1_0701 (Homo sapiens, UniProt P01903+P01911, A100R/A102G/A103Q/D57E/D86V/E43K/F76Y/K127E/L162R/M171V/P40G/Q125H/Q99D/R33Q/R42Y/R54Q/S133A/S66F/T210M/V115G/Y107V/Y59L/Y89S); test: Competitive MHC class II binding assay, DRB1_0701;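 further: displacement of a radiolabeled reference peptide from purified HLA class II protein, with complex-bound radioactivity counted after 2–4 days of incubation and six concentrations spanning a 100,000-fold range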
DRB4_0101 = DRB4_0101 (Homo sapiens, UniProt P01903+P13762, G164S); test: Competitive MHC class II binding assay, DRB4_0101
DRB3_0202 = DRB3_0202 (Homo sapiens, UniProt P01903+P79483, A212P/D57E/F66Y/L67A/R103Q/R218S/R40L/S89Y/T80R/V86D/Y55F/Y59H); test: Competitive MHC class II binding assay, DRB3_0202
DRB1_0401 = DRB1_0401 (Homo sapiens, UniProt P01903+P01911, A100K/A169T/F76Y/I96L/K127E/L162R/M171V/N62H/P40V/Q125Y/R42H/S133A/S149N/S66Y/V115G/V209L/W38E); test: Competitive MHC class II binding assay, DRB1_0401
DRB1_0301 = DRB1_0301 (Homo sapiens, UniProt P01903+P01911, A100K/A102G/A103R/A169T/F55Y/I96L/K41T/L162R/M171V/P40S/Q125H/Q178H/Q39Y/R42S/S66N/T106N/T262R/W38E/Y61H); test: Competitive MHC class II binding assay, DRB1_0301
DQA10401-DQB10402 = test: Competitive MHC class II binding assay, DQA10401-DQB10402
DQA10501-DQB10201 = DQA10501-DQB10201 (Homo sapiens, UniProt P01909+P01920, A45G/A70V/D89A/E106A/E77G/E98D/H199R/L107V/N214S/P84L/P87L/T103K/T109R/T172A/T60S/V78E/V99I/Y58L/Y62S/Y69I/Y79F); test: Competitive MHC class II binding assay, DQA10501-DQB10201
DRB3_0101 = DRB3_0101 (Homo sapiens, UniProt P01903+P79483); test: Competitive MHC class II binding assay, DRB3_0101
DRB1_1201 = DRB1_1201 (Homo sapiens, UniProt P01903+P01911, A100R/A169T/D57E/D86V/F55L/H45Y/K41T/L162R/M171V/P40S/Q125H/Q178H/Q39Y/Q99D/R42G/S66L/T262R/V114A/V67L/W38E/Y59H/Y61H/Y89S); test: Competitive MHC class II binding assay, DRB1_1201
[1] = Solubility of peptides in aqueous solutions at different pH (visual inspection, OD, HPLC); assay type: physicochemical; settings: pH 7, visual inspection
Description: This example describes modifications of parent peptides to improve the aqueous solubility, in particular to increase the solubility in an aqueous solution having pH in a physiologically acceptable range, e.g. from 6 to 8. Solubility is closely related to the ratio between hydrophilic and hydrophobic amino acid residues and the net charge state of the peptide. Peptides have zero net charge at pH=pI, and would be expected to show the lowest solubility at this pH. […] The solubility of these peptides was increased at pH values outside the physiological range (data not shown).
Peptides were tested for their ability to dissolve in aqueous solutions at different pH values. In short, each of the peptides were dissolved in water (pH about 5-6), hydrochloride solution at pH 2 (10 mM HCl), acetate buffer with pH 5 (20 mM acetate and 140 mM sodium chloride), phosphate buffer with pH 7 (20 mM phosphate and 140 mM sodium chloride) or bistrispropate buffer with pH 9 (20 mM bitrispropane and 140 mM sodium chloride, respectively, to produce a final molar concentration of the peptide of about 0.25 mM or 1 mM. Optionally, about 20% DMSO may be part of the solution. For comparison reasons, peptides were also dissolved in acetonitrile or DMSO. The solutions were inspected visually before and after centrifugation for turbidity, presence of particles/aggregates. In addition, presence of turbidity/particles/aggregates were detected by optical density (OD), but might also be detected by size-exclusion chromatography. Sub-visual particles may also be detected by dynamic light scattering (DLS) analysis. The solubility and stability of each peptide were also investigated using HPLC, e.g. RP-HPLC. For example, each of the solutions were injected onto the HPLC and the peak height or peak area of each of the peptides were compared to the corresponding peptide of a chromatogram of peptides dissolved in acetonitrile or DMSO—as peptides were assumed to be fully dissolved and stable in these solvents.

DRB1_0405 = DRB1_0405 (Homo sapiens, UniProt P01903+P01911, A100R/A169T/D86S/F76Y/I96L/K127E/L162R/M171V/N62H/P40V/Q125Y/R42H/S133A/S149N/S66Y/V115G/V209L/W38E); test: Competitive MHC class II binding assay, DRB1_0405
DQA10102-DQB10602 = test: Competitive MHC class II binding assay, DQA10102-DQB10602; settings: read-out: HLA-DQA10102-DQB10602; positive binding at cutoff 1000 nM
DPA10103-DPB10402 = target: T2, DPA10103-DPB10402 (Homo sapiens, UniProt P04440+P20036, A65V/A84D/A85E/L207M); test: Competitive MHC class II binding assay, DPA10103-DPB10402
T2 sequence (P20036 29-260): T1 sequence (P20036 29-260 A42M/F191V/K142R/L158P/M62Q/Q81R/T114A/T259P) with M14A, Q34M, R53Q, A86T, R114K, P130L, V163F, P231T
T2 sequence (P04440 30-258 A65V/A84D/A85E): T1 sequence (P04440 30-258 A65V/A84E/F64L/G113D/G114E/M116V/P115A/R125K/T199I/V234M) with L35F, E55D, A56E, D84G, E85G, A86P, V87M, K96R, I170T, M205V

DQA10301-DQB10302 = DQA10301-DQB10302 (Homo sapiens, UniProt P01909+P01920, A209T/A45G/C70Q/D89A/DUP78-78/E183D/E77G/F237L/G63E/H199R/I129T/K197E/L178F/L74F/L98V/Q57E/Q76R/S185I/S97I/T217I/T49S/V73L/Y58L); test: Competitive MHC class II binding assay, DQA10301-DQB10302

Sequence | IC50 (DRB1_0802) | IC50 (DRB1_1501) | IC50 (DRB5_0101) | IC50 (DRB1_0901) | IC50 (DRB1_0101) | IC50 (DPA10202-DPB10501) | IC50 (DQA10501-DQB10301) | IC50 (DRB1_1302) | IC50 (DRB1_0701) | IC50 (DRB3_0202) | IC50 (DRB1_0401) | IC50 (DRB3_0101) | IC50 (DQA10102-DQB10602) | other results
GVLASAIATHAKIR [HDM26B, reference compound] | < 1000 nM | < 1000 nM | < 1000 nM | < 1000 nM | < 1000 nM | < 1000 nM | < 1000 nM | < 1000 nM | < 1000 nM | < 1000 nM | < 1000 nM |  |  | IC50 (DRB4_0101): < 1000 nM
IEYIQQNGVVEERSYPYVAR [pep-075] |  |  |  |  | < 1000 nM |  |  | < 1000 nM |  | < 1000 nM |  | < 1000 nM | < 1000 nM | IC50 (DRB1_0301): < 1000 nM; binding to HLA Class II allele DQA10401-DQB10402 (DQA10401-DQB10402; as shown in Table 16a): binds to at least the same alleles as peptide 041; IC50 (DQA10401-DQB10402; read-out: HLA-DQA10401-DQB10402, positive binding at cutoff 1000 nM): < 1000 nM; IC50 (DQA10501-DQB10201): < 1000 nM; binding to HLA Class II allele DQA10501-DQB10201 (DQA10501-DQB10201; as shown in Table 16a): binds to at least the same alleles as peptide 041; binding to HLA Class II allele DRB3_0101 (DRB3_0101; as shown in Table 16a): binds to at least the same alleles as peptide 041; IC50 (DRB1_1201): < 1000 nM; binding to HLA Class II allele DRB1_1302 (DRB1_1302; as shown in Table 16a): binds to at least the same alleles as peptide 041; Solubility at pH 7 (visual inspection) [1]: Turbid; IC50 (DRB1_0405): < 1000 nM; binding to HLA Class II allele DRB3_0202 (DRB3_0202; as shown in Table 16a): binds to at least the same alleles as peptide 041
NYSQIYPPNVNKIREA [HDM101A, reference compound] |  | < 1000 nM |  |  | < 1000 nM |  |  | < 1000 nM | < 1000 nM | < 1000 nM |  |  |  | IC50 (DPA10103-DPB10402): < 1000 nM
VLASAIATHAKIRD [pep-012] |  |  | < 1000 nM | < 1000 nM | < 1000 nM | < 1000 nM | < 1000 nM |  | < 1000 nM |  |  | < 1000 nM |  | 
VMGDDGVLASAIATHAKIRD [pep-099] | < 1000 nM |  | < 1000 nM | < 1000 nM | < 1000 nM | < 1000 nM | < 1000 nM | < 1000 nM |  |  | < 1000 nM |  | < 1000 nM | 
VMGDNGVLASAIATHAKIRD [pep-125] | < 1000 nM |  | < 1000 nM | < 1000 nM | < 1000 nM | < 1000 nM | < 1000 nM |  |  |  |  |  |  | IC50 (DQA10301-DQB10302): < 1000 nM
